Our source for the IC50 values is US20240182470A1, “KRASG12C MUTANT PROTEIN INHIBITOR, PREARATION AND USE THEREOF” (YA THERAPEUTICS INC, priority 2021, published 2024).

Read-outs that look alike come from different tables or passages of the source.

In one experiment the target is T1, KRAS-G2C/SOS1 (Homo sapiens, UniProt P01116, G12C).
T1 construct: Tag2 (identity not disclosed)
Put plainly: KRAS-G12C/SOS1 binding experiment (HTRF). The settings on record: Tag2-KRAS-G12C protein and Tag1-SOS protein. How it is done:
• A) Dilute Tag2-KRAS-G12C protein and Tag1-SOS protein with diluent at 1:100, anti-Tag1-Tb3+ antibody and anti-Tag2-XL665 with detection buffer at 1:100 or 1:25 respectively Dilute. • B) Dilute the compound to be tested with diluent starting from […] concentration, 4 times gradient, a total of 6 concentration gradients, and dilute to 10× stock solution. • C) In a 96-well plate, add 4 uLTag2-KRAS-G12C protein, 4 uL Tagl-SOS protein, 2 ul dilution solution (positive control) or test compound (different concentrations of 10× stock solution) to each well in sequence, a total of 10 ul, and incubate at room temperature for […], add pre-mixed 5 uL anti-Tagl-Tb3+ and 5 uL anti-Tag2-xL665, seal the plate, incubate at room temperature for 2 hours, and read the HTRF signal with a TECAN INFINITEF NANO+ microplate reader.
The ratio of […] and donor excitation signals for each single well was calculated using the formula ratio=665 nm signal value/620 nm signal value×[…]. Data were processed using Graphpadprism5 software. IC50 values were calculated by sigmoidal dose-response curve fitting.
A general note: In TR-FRET formats the signal depends on donor and acceptor labels being close together.

For experiment [1], the system named is H358 (KRAS G12C mutant) cells. Put plainly: Tumor cell proliferation inhibition assay (Cell Titer-Glo, 72 h). The settings on record: inhibition of tumor cell proliferation, 72 hours with compound, 10% fetal bovine serum, read-out: NCI-H538 IC50(nm). The experiment is classed as cell-based. The method, boiled down:
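H358 cells seeded, cultured 24 h, then exposed to serial compound concentrations for 72 h in 10% FBS at 37 °C, 5% CO2. ATP measured by CellTiter-Glo; % inhibition relative to DMSO (max) and medium-only (min) signals. IC50 from sigmoid dose-response fit, binned into categories A–D.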
For orientation: In ATP-based viability assays light output follows the ATP content of the culture.

Turning to “7-(8-Fluoronaphthyl)-6-fluoro-4-(((S)-4-(2-fluoroacryloyl)-3-carbonitrileethylpiperazine)-1-yl)-2-((((S)-1-methylpyrrolidin-2-yl)methoxy)-1,8-naphthyridine [Compound 5]”, the IC50 on KRAS-G2C/SOS1 was below 50 nM; in experiment [1] it was at most 50 nM. `C=CC(=O)N1CCN(c2cc(OC[C@@H]3CCCN3C)nc3nc(-c4c(O)cccc4F)c(F)cc23)C[C@@H]1CC#N` [Compound 3]: the concentration for half-maximal inhibition (IC50) at KRAS-G2C/SOS1 was above 500 nM; in experiment [1] (Homo sapiens, NCI-H358), above 2000 nM. For the compound `C=CC(=O)N1CCN(c2cc(OC[C@@H]3CCCN3C)nc3nc(-c4cccc5cccc(F)c45)c(F)cc23)[C@H](C)C1` [Compound 7], the IC50 at KRAS-G2C/SOS1 is below 50 nM; in experiment [1] (Homo sapiens, NCI-H358), at most 50 nM. Consider `C=CC(=O)N1CCN(c2cc(OC[C@@H]3CCCN3C)nc3nc(-c4c(O)cccc4F)ccc23)[C@H](C)C1` [Compound 1, 7-(2-Fluoro-6-hydroxyphenyl)-4-(((R)-4-acryloyl-2-methylpiperazine)-1-yl)-2-(((S)-1-methylpyrrolidin-2-yl)methoxy)-1,8-naphthyridine], for which the IC50 is above 500 nM on KRAS-G2C/SOS1 and above 2000 nM in experiment [1]. In the case of `C=C(F)C(=O)N1CCN(c2nc(OC[C@@]34CCCN3C[C@H](F)C4)nc3nc(-c4cccc5cccc(F)c45)ccc23)C[C@@H]1CC#N` [Compound 92, 7-(8-Fluoronaphthyl)-4-(((S)-4-(2-fluoroacryloyl)-3-carbonitrileethylpiperazine)-1-yl)-2-(((2R,7aS)-2-fluorotetrahydro-1H-pyrincycl-7a(5H)-yl)methoxy)pyridine[2,3-d]lopyrimidine], in experiment [1], the IC50 was at most 50 nM. For `C=CC(=O)N1CCN(c2nc(OC[C@@]34CCCN3C[C@H](F)C4)nc3c(F)c(-c4cccc5cccc(F)c45)ccc23)[C@H](C)C1` [Compound 47, 7-(8-Fluoronaphthyl)-8-fluoro-4-(((R)-4-acryloyl-2-methylpiperazine)-1-yl)-2-(((2R,7aS)-2-fluorotetrahydro-1H-pyrincyclo-7a(5H)-yl)methoxy)quinazoline], the IC50 in experiment [1] is at most 50 nM.

On to `C=C(F)C(=O)N1C2CCC1CN(c1nc(OC[C@@]34CCCN3C[C@H](F)C4)nc3c(F)c(-c4cccc5cccc(F)c45)c(Cl)cc13)C2` [Compound 39, 6-Chloro-7-(8-fluoronaphthyl)-8-fluoro-4-(8-(2-fluoroacryloyl)-3,8-diazabicyclo[3.2.1]octan-3-yl)-2-(((2R,7aS)-2-fluorotetrahydro-1H-pyrincycline-7a(5H)-yl)methoxy)quinazoline], for which the IC50 in experiment [1] was at most 50 nM.

As for `C=CC(=O)N1CCN(c2nc(OC[C@@]34CCCN3CC(F)(F)C4)nc3c(F)c(-c4cc(O)cc5cccc(F)c45)ccc23)[C@H](C)C1` [Compound 60, 7-(3-Hydroxy-8-fluoronaphthyl)-8-fluoro-4-(((R)-4-acryloyl-2-methylpiperazine)-1-yl)-2-(((S)-2,2-difluorotetrahydro-1H-pyrinyl-7a(5H)-yl)methoxy)quinazoline], in experiment [1], the IC50 is at most 50 nM. For the compound “7-(8-Fluoronaphthalene)-4-(((R)-4-Acryloyl-2-methylpiperazine)-1-yl)-24(1-(N,N-dimethylamino)) methylcyclopropan-1-yl)methoxy)pyridine[2,3-d]lopyrimidine [Compound 24]”, the IC50 in experiment [1] is at most 50 nM. The same measure, in the same setting: the result for “7-(8-Methylnaphthyl)-8-fluoro-4-(((R)-4-acryloyl-2-methylpiperazine)-1-yl)-2-(((2R,7aS)tetrakishydrogen-1H-pyrinyl-7a(5H)-yl)methoxy)quinazoline [Compound 61]” reads at most 50 nM; that for “7-(8-Fluoronaphthyl)-8-fluoro-4-(((S)-4-acryloyl-3-carbonitrileethylpiperazine)-1-yl)-2-(((S)-2,2-Difluorotetrahydro-1H-pyrinyl-7a(5H)-yl)methoxy)quinazoline [Compound 63]”, at most 50 nM.

As usually defined, the IC50 is the point on the concentration scale where inhibition reaches its midpoint.
